Measurements published in ChEMBL document CHEMBL3414487, “Synthesis and biological activity of salinomycin conjugates with floxuridine” (Eur J Med Chem, 2015).
pIC50: −log10 of the molar value. In brackets after ≈: the same amount, converted by molar mass.

Legend:
[1] = Antiproliferative activity against human HL60 cells assessed as growth inhibition after 72 hrs by MTT assay; assay type: functional, cell-based; conditions: HL-60, 72 h
[2] = Antiproliferative activity against human vincristine-resistant HL60/Vinc cells assessed as growth inhibition after 72 hrs by MTT assay; assay type: functional
LoVo [3] = assay: Antiproliferative activity against human LoVo cells assessed as growth inhibition after 72 hrs by SRB method; assay type: functional, cell-based
[4] = Antiproliferative activity against human doxorubicin-resistant LoVo/DX cells assessed as growth inhibition after 72 hrs by SRB method; assay type: functional, cell-based
HT-29 [5] = assay: Antiproliferative activity against human HT-29 cells assessed as growth inhibition after 72 hrs by SRB method; assay type: functional, cell-based
[6] = Antiproliferative activity against human LS180 cells assessed as growth inhibition after 72 hrs by SRB method; assay type: functional, cell-based
[7] = Antiproliferative activity against human SW707 cells assessed as growth inhibition after 72 hrs by SRB method; assay type: functional, cell-based
BALB/3T3 = assay: Antiproliferative activity against mouse BALB/3T3 cells assessed as growth inhibition after 72 hrs by SRB method; assay type: cell-based; conditions: BALB/3T3, 72 h
HL-60 [8] = assay: Selectivity index, ratio of IC50 for mouse BALB/3T3 cells to IC50 for human HL60 cells; assay type: functional
[9] = Selectivity index, ratio of IC50 for mouse BALB/3T3 cells to IC50 for human HL60/Vinc cells; assay type: functional
[10] = Selectivity index, ratio of IC50 for mouse BALB/3T3 cells to IC50 for human LoVo/DX cells; assay type: functional
HL-60 [11] = assay: Resistance index, ratio of IC50 for human HL60/Vinc cells to IC50 for human HL60 cells
Staphylococcus aureus [12] = assay: Antimicrobial activity against Staphylococcus aureus […] 4163 after 18 hrs by two-fold serial microdilution method; assay type: functional
Staphylococcus aureus [13] = assay: Antimicrobial activity against Staphylococcus aureus ATCC 25923 after 18 hrs by two-fold serial microdilution method; assay type: functional; conditions: ATCC 25923, 18 h
Staphylococcus aureus [14] = assay: Antimicrobial activity against Staphylococcus aureus ATCC 6538 after 18 hrs by two-fold serial microdilution method; assay type: functional; conditions: ATCC 6538, 18 h
Staphylococcus aureus [15] = assay: Antimicrobial activity against Staphylococcus aureus ATCC 29213 after 18 hrs by two-fold serial microdilution method; assay type: functional; conditions: ATCC 29213, 18 h
[16] = tested on: Staphylococcus epidermidis; assay: Antimicrobial activity against Staphylococcus epidermidis ATCC 12228 after 18 hrs by two-fold serial microdilution method; assay type: functional; conditions: ATCC 12228, 18 h
[17] = tested on: Staphylococcus epidermidis; assay: Antimicrobial activity against Staphylococcus epidermidis ATCC 35984 after 18 hrs by two-fold serial microdilution method; assay type: functional; conditions: ATCC 35984, 18 h
Staphylococcus aureus [18] = assay: Antimicrobial activity against methicillin-resistant Staphylococcus aureus 452/11 after 18 hrs by two-fold serial microdilution method; assay type: functional; conditions: 452/11, 18 h
Staphylococcus aureus [19] = assay: Antimicrobial activity against methicillin-resistant Staphylococcus aureus 456/11 after 18 hrs by two-fold serial microdilution method; assay type: functional; conditions: 456/11, 18 h
Staphylococcus aureus [20] = assay: Antimicrobial activity against methicillin-resistant Staphylococcus aureus 462/11 after 18 hrs by two-fold serial microdilution method; assay type: functional; conditions: 462/11, 18 h
Staphylococcus aureus [21] = assay: Antimicrobial activity against methicillin-resistant Staphylococcus aureus 514/11 after 18 hrs by two-fold serial microdilution method; assay type: functional; conditions: 514/11, 18 h
Staphylococcus aureus [22] = assay: Antimicrobial activity against methicillin-resistant Staphylococcus aureus 522/12 after 18 hrs by two-fold serial microdilution method; assay type: functional; conditions: 522/12, 18 h
Staphylococcus aureus [23] = assay: Antimicrobial activity against methicillin-resistant Staphylococcus aureus 537/12 after 18 hrs by two-fold serial microdilution method; assay type: functional; conditions: 537/12, 18 h
Staphylococcus aureus [24] = assay: Antimicrobial activity against methicillin-resistant Staphylococcus aureus 572/12 after 18 hrs by two-fold serial microdilution method; assay type: functional; conditions: 572/12, 18 h
Staphylococcus aureus [25] = assay: Antimicrobial activity against methicillin-resistant Staphylococcus aureus 573/12 after 18 hrs by two-fold serial microdilution method; assay type: functional; conditions: 573/12, 18 h
Staphylococcus aureus [26] = assay: Antimicrobial activity against methicillin-resistant Staphylococcus aureus 585/12 after 18 hrs by two-fold serial microdilution method; assay type: functional; conditions: 585/12, 18 h
Staphylococcus aureus [27] = assay: Antimicrobial activity against methicillin-resistant Staphylococcus aureus 586/12 after 18 hrs by two-fold serial microdilution method; assay type: functional; conditions: 586/12, 18 h
[28] = tested on: Staphylococcus epidermidis; assay: Antimicrobial activity against methicillin-resistant Staphylococcus epidermidis 459/11 after 18 hrs by two-fold serial microdilution method; assay type: functional; conditions: 459/11, 18 h
[29] = tested on: Staphylococcus epidermidis; assay: Antimicrobial activity against methicillin-resistant Staphylococcus epidermidis 460/11 after 18 hrs by two-fold serial microdilution method; assay type: functional; conditions: 460/11, 18 h
[30] = tested on: Staphylococcus epidermidis; assay: Antimicrobial activity against methicillin-resistant Staphylococcus epidermidis 461/11 after 18 hrs by two-fold serial microdilution method; assay type: functional; conditions: 461/11, 18 h
[31] = tested on: Staphylococcus epidermidis; assay: Antimicrobial activity against methicillin-resistant Staphylococcus epidermidis 466/11 after 18 hrs by two-fold serial microdilution method; assay type: functional; conditions: 466/11, 18 h
[32] = tested on: Staphylococcus epidermidis; assay: Antimicrobial activity against methicillin-resistant Staphylococcus epidermidis 467/11 after 18 hrs by two-fold serial microdilution method; assay type: functional; conditions: 467/11, 18 h
[33] = tested on: Staphylococcus epidermidis; assay: Antimicrobial activity against methicillin-resistant Staphylococcus epidermidis 468/11 after 18 hrs by two-fold serial microdilution method; assay type: functional; conditions: 468/11, 18 h
[34] = tested on: Staphylococcus epidermidis; assay: Antimicrobial activity against methicillin-resistant Staphylococcus epidermidis 469/11 after 18 hrs by two-fold serial microdilution method; assay type: functional; conditions: 469/11, 18 h
[35] = tested on: Staphylococcus epidermidis; assay: Antimicrobial activity against methicillin-resistant Staphylococcus epidermidis 470/11 after 18 hrs by two-fold serial microdilution method; assay type: functional; conditions: 470/11, 18 h
[36] = tested on: Staphylococcus epidermidis; assay: Antimicrobial activity against methicillin-resistant Staphylococcus epidermidis 488/11 after 18 hrs by two-fold serial microdilution method; assay type: functional; conditions: 488/11, 18 h
[37] = tested on: Staphylococcus epidermidis; assay: Antimicrobial activity against methicillin-resistant Staphylococcus epidermidis 489/11 after 18 hrs by two-fold serial microdilution method; assay type: functional; conditions: 489/11, 18 h
LoVo [38] = assay: Selectivity index, ratio of IC50 for mouse BALB/3T3 cells to IC50 for human LoVo cells; assay type: functional
HT-29 [39] = assay: Selectivity index, ratio of IC50 for mouse BALB/3T3 cells to IC50 for human HT-29 cells; assay type: functional
[40] = Selectivity index, ratio of IC50 for mouse BALB/3T3 cells to IC50 for human LS180 cells; assay type: functional
[41] = Selectivity index, ratio of IC50 for mouse BALB/3T3 cells to IC50 for human SW707 cells; assay type: functional
LoVo [42] = assay: Resistance index, ratio of IC50 for human LoVo/DX cells to IC50 for human LoVo cells

Structure (SMILES): [N-]=[N+]=N[C@H]1C[C@H](n2cc(F)c(=O)[nH]c2=O)O[C@@H]1CO
- pIC50 [1]: 3.75
- pIC50 ([2]; Homo sapiens, HL60/vinc, 72 h): 3.53
- inhibition (INH) (LoVo [3]): 43%
- pIC50 [4]: 3.54
- inhibition (INH) (HT-29 [5]): 25%
- inhibition (INH) [6]: 25%
- inhibition (INH) [7]: 41%
- pIC50 (BALB/3T3): 4.01
- Selectivity Index (HL-60 [8]): 0.54
- Selectivity Index [9]: 0.33
- Selectivity Index [10]: 0.34
- Ratio IC50 (HL-60 [11]): 1.63
- MIC (Staphylococcus aureus [12]): 3.69 µM (≈ 1 µg/mL)
- MIC (Staphylococcus aureus [13]): 3.69 µM (≈ 1 µg/mL)
- MIC (Staphylococcus aureus [14]): 3.69 µM (≈ 1 µg/mL)
- MIC (Staphylococcus aureus [15]): 7.38 µM (≈ 2 µg/mL)
- MIC [16]: 1.85 µM (≈ 0.502 µg/mL)
- MIC [17]: 7.38 µM (≈ 2 µg/mL)
- MIC (Staphylococcus aureus [18]): 3.69 µM (≈ 1 µg/mL)
- MIC (Staphylococcus aureus [19]): 3.69 µM (≈ 1 µg/mL)
- MIC (Staphylococcus aureus [20]): 7.38 µM (≈ 2 µg/mL)
- MIC (Staphylococcus aureus [21]): 3.69 µM (≈ 1 µg/mL)
- MIC (Staphylococcus aureus [22]): 7.38 µM (≈ 2 µg/mL)
- MIC (Staphylococcus aureus [23]): 7.38 µM (≈ 2 µg/mL)
- MIC (Staphylococcus aureus [24]): 3.69 µM (≈ 1 µg/mL)
- MIC (Staphylococcus aureus [25]): 7.38 µM (≈ 2 µg/mL)
- MIC (Staphylococcus aureus [26]): 3.69 µM (≈ 1 µg/mL)
- MIC (Staphylococcus aureus [27]): 3.69 µM (≈ 1 µg/mL)
- MIC [28]: 0.92 µM (≈ 0.25 µg/mL)
- MIC [29]: 0.92 µM (≈ 0.25 µg/mL)
- MIC [30]: 1.85 µM (≈ 0.502 µg/mL)
- MIC [31]: 0.46 µM (≈ 0.125 µg/mL)
- MIC [32]: 0.92 µM (≈ 0.25 µg/mL)
- MIC [33]: 0.92 µM (≈ 0.25 µg/mL)
- MIC [34]: 3.69 µM (≈ 1 µg/mL)
- MIC [35]: 0.92 µM (≈ 0.25 µg/mL)
- MIC [36]: 0.92 µM (≈ 0.25 µg/mL)
- MIC [37]: 3.69 µM (≈ 1 µg/mL)

Structure (SMILES): CC[C@@H](C(=O)[C@@H](C)[C@@H](O)[C@H](C)[C@@H]1O[C@@H]([C@@H](CC)C(=O)NCc2cn([C@H]3C[C@H](n4cc(F)c(=O)[nH]c4=O)O[C@@H]3CO)nn2)CC[C@@H]1C)[C@H]1O[C@]2(C=C[C@@H](O)[C@]3(CC[C@@](C)([C@H]4CC[C@](O)(CC)[C@H](C)O4)O3)O2)[C@H](C)C[C@@H]1C
- pIC50 [1]: 4.54
- inhibition (INH) [2]: 20%
- pIC50 (LoVo [3]; Homo sapiens, LoVo, 72 h): 4.38
- pIC50 [4]: 4.15
- pIC50 (HT-29 [5]; Homo sapiens, HT-29, 72 h): 4.52
- pIC50 ([6]; Homo sapiens, LS180, 72 h): 4.48
- pIC50 ([7]; Homo sapiens, SW707, 72 h): 4.46
- pIC50 (BALB/3T3): 4.53
- Selectivity Index (HL-60 [8]): 1.03
- Selectivity Index (LoVo [38]): 0.72
- Selectivity Index [10]: 0.42
- Selectivity Index (HT-29 [39]): 0.98
- Selectivity Index [40]: 0.9
- Selectivity Index [41]: 0.85
- Ratio IC50 (LoVo [42]): 1.71
- MIC (Staphylococcus aureus [12]): 30.2 µM (≈ 32 µg/mL)
- MIC (Staphylococcus aureus [13]): 30.2 µM (≈ 32 µg/mL)
- MIC (Staphylococcus aureus [14]): 30.2 µM (≈ 32 µg/mL)
- MIC (Staphylococcus aureus [15]): 60.4 µM (≈ 64 µg/mL)
- MIC [16]: 30.2 µM (≈ 32 µg/mL)
- MIC [17]: 30.2 µM (≈ 32 µg/mL)
- MIC (Staphylococcus aureus [18]): 60.4 µM (≈ 64 µg/mL)
- MIC (Staphylococcus aureus [19]): 60.4 µM (≈ 64 µg/mL)
- MIC (Staphylococcus aureus [20]): 60.4 µM (≈ 64 µg/mL)
- MIC (Staphylococcus aureus [21]): 242 µM (≈ 256 µg/mL)
- MIC (Staphylococcus aureus [22]): 242 µM (≈ 256 µg/mL)
- MIC (Staphylococcus aureus [23]): 242 µM (≈ 256 µg/mL)
- MIC (Staphylococcus aureus [24]): 242 µM (≈ 256 µg/mL)
- MIC (Staphylococcus aureus [25]): 60.4 µM (≈ 64 µg/mL)
- MIC (Staphylococcus aureus [26]): 121 µM (≈ 128 µg/mL)
- MIC (Staphylococcus aureus [27]): 121 µM (≈ 128 µg/mL)
- MIC [28]: 30.2 µM (≈ 32 µg/mL)
- MIC [29]: 30.2 µM (≈ 32 µg/mL)
- MIC [30]: 30.2 µM (≈ 32 µg/mL)
- MIC [31]: 30.2 µM (≈ 32 µg/mL)
- MIC [32]: 60.4 µM (≈ 64 µg/mL)
- MIC [33]: 60.4 µM (≈ 64 µg/mL)
- MIC [34]: 60.4 µM (≈ 64 µg/mL)
- MIC [35]: 30.2 µM (≈ 32 µg/mL)
- MIC [36]: 121 µM (≈ 128 µg/mL)
- MIC [37]: 30.2 µM (≈ 32 µg/mL)
